Assays:
[1] = target: T1, LATS2 (Homo sapiens, UniProt Q9NRM7); assay: RBC HotSpot kinase assay (33P-ATP, P81 filter-binding), LATS2; assay type: biochemical; details: biochemical kinase inhibition; read-out: LATS2 IC50
T1 sequence (Q9NRM7 1-1088): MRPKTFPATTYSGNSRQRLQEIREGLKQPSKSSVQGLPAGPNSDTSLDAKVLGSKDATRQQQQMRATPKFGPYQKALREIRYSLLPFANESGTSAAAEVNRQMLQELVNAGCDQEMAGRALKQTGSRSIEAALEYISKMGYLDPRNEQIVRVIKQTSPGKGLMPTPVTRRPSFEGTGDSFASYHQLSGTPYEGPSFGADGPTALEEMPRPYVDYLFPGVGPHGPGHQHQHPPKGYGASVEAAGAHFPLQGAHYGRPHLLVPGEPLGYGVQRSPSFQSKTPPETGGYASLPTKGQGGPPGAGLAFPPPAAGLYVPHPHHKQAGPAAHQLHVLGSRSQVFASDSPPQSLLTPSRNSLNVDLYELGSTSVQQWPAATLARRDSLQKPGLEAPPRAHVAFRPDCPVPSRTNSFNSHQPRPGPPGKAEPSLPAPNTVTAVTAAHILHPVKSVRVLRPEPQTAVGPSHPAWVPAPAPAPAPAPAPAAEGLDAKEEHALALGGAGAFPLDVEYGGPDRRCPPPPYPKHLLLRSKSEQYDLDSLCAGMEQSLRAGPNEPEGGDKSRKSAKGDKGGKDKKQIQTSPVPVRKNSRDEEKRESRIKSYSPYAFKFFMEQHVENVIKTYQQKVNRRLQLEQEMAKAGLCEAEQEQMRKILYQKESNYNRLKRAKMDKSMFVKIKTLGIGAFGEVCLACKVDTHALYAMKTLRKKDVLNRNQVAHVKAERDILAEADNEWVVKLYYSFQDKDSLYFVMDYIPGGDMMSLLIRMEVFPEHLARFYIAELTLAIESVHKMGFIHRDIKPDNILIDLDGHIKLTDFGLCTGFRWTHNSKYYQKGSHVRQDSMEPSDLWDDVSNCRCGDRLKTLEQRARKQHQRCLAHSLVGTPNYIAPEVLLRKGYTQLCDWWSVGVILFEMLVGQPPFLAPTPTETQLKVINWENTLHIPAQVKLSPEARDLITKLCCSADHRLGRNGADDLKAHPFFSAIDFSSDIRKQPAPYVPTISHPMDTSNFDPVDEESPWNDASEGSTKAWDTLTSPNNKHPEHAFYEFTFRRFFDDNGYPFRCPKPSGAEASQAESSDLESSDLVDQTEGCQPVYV
Method in brief: (§1)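 Hepes pH 7.5/MgCl2/EGTA/Brij35/BSA/Na3VO4/DTT buffer, cofactors per kinase; cpd acoustically dispensed, 20 min preinc RT; start w/ 33P-ATP, 2 h RT; P81 filter readout; 10-pt singlet IC50.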

[2] = target: AKT (Homo sapiens, UniProt P31749); assay: RBC HotSpot kinase assay (33P-ATP, P81 filter-binding), AKT; assay type: biochemical; details: biochemical kinase inhibition; read-out: AKT IC50
Sequence of AKT (P31749 whole entry): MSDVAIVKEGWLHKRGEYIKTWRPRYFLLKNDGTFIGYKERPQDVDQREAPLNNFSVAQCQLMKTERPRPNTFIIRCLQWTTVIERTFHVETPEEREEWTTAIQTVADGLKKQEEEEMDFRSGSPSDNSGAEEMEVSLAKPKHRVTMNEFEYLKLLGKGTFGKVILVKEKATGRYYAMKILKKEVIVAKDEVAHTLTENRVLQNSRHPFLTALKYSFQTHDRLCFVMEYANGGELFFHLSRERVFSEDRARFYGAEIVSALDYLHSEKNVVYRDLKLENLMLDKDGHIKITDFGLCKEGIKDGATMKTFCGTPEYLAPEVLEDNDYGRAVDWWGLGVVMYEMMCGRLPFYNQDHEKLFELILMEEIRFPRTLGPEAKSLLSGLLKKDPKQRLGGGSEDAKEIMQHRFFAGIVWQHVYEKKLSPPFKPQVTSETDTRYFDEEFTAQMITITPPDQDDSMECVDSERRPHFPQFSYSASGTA
Method in brief: as §1

IC50 [1] [nM]	IC50 [2] [nM]	SMILES
2.9	388	Cc1cc(-c2ccnc3[nH]cc(C#N)c23)cc(F)c1[C@@]1(O)[C@H](C)CN(C(=O)[C@H](CO)N(C)C)C[C@@H]1C [Compound 2023, 4-(4-((3S,4R,5R)-1-(dimethyl-L-seryl)-4-hydroxy-3,5-dimethylpiperidin-4-yl)-3-fluoro-5-methylphenyl)-1H-pyrrolo[2,3-b]pyridine-3-carbonitrile]
4.2	334	Cc1cc(-c2ccnc3[nH]cc(C#N)c23)cc(F)c1[C@@]1(O)[C@H](C)CNC[C@@H]1C [Compound 2024, 4-(3-fluoro-4-((3S,4s,5R)-4-hydroxy-3,5-dimethylpiperidin-4-yl)-5-methylphenyl)-1H-pyrrolo[2,3-b]pyridine-3-carbonitrile]

— patent US20250361230A1, “LATS Inhibitors and Uses Thereof” (The USA, as Represented by the Secretary, Dept. of Heath …, priority 2022, published 2025)
